Data as given in ChEMBL document CHEMBL4651402, “Screening of ~5500 FDA-approved drugs and clinical candidates for anti-SARS-CoV-2 activity” (2021).

System: SARS-CoV-2
Assay: microbe, parasite or virus in culture
Conditions: Severe acute respiratory syndrome coronavirus 2, Vero C1008, 48 h

SMILES	IC50 [µM]	IC50 (read-out: pIC50 (converted)) [µM]
COC(=O)c1c(C)cc(OC(=O)c2c(C)cc(O)c(C=O)c2O)c(C)c1O [ATRANORIN]	> 20	> 20
C[n+]1ccccc1C=NO [PRALIDOXIME]	> 20	> 20
COc1ccc2cc3[n+](cc2c1OC)CCc1cc2c(cc1-3)OCO2 [BERBERINE]	> 20	> 20
CN(C)CCOc1ccccc1Cc1ccccc1 [PHENYLTOLOXAMINE]	> 20	> 20
CCC(C)C(C(=O)OC1CCN(C)CC1)c1ccccc1 (stereo unspecified) [PENTAPIPERIDE]	> 20	> 20
COc1cc2c(cc1OC)C1Cc3ccc(OC)c(OC)c3CN1CC2 (stereo unspecified)	> 20	> 20
OC[C@H]1O[C@@H](c2ccc(F)c(Cc3cc4ccccc4s3)c2)[C@H](O)[C@@H](O)[C@@H]1O [IPRAGLIFLOZIN]	> 20	> 20
CCNC(=O)C[C@H]1N=C(c2ccc(Cl)cc2)c2cc(OC)ccc2-n2c(C)nnc21	> 20	> 20
NC1=NCC2c3ccccc3Cc3ccccc3N12 (stereo unspecified) [EPINASTINE]	> 20	> 20
CC(C(O)(Cn1cncn1)c1ccc(F)cc1F)S(C)(=O)=O (stereo unspecified)	> 20	> 20
CN(C)C(=O)Oc1cc(OC(=O)N(C)C)cc(C(O)CNC(C)(C)C)c1 (stereo unspecified) [BAMBUTEROL]	> 20	> 20
Nc1ncnc2c1nc(Cl)n2C1O[C@H](CO)[C@@H](O)[C@H]1O (stereo partly specified)	> 20	> 20
C=C1C(=O)[C@]23[C@H](O)[C@H]1CC[C@H]2[C@@]12CO[C@]3(O)[C@@H](O)[C@@H]1C(C)(C)CC[C@@H]2O [ORIDONIN]	> 20	> 20
CCCCOc1nc(N)c2c(n1)N(Cc1cccc(CN3CCCC3)c1)CC(=O)N2 [VESATOLIMOD]	> 20	> 20
COc1ccc(CCN(C)CCCN2CCc3cc(OC)c(OC)cc3CC2=O)cc1OC [ZATEBRADINE]	> 20	> 20
COc1ccc2c(c1)[C@]13CCCC[C@@H]1[C@H](C2)N(C)CC3 [DEXTROMETHORPHAN]	> 20	> 20
O=c1[nH]c2cc(-n3ccnc3)c([N+](=O)[O-])cc2[nH]c1=O [YM-90K]	> 20	> 20
CCCN(CCC)CCc1ccc(OC)c(OCCc2ccccc2)c1	> 20	> 20
CC(=O)Nc1ccc(S(=O)(=O)Nc2ccc([N+](=O)[O-])cc2)cc1	> 20	> 20
C1COC(NC(C2CC2)C2CC2)=N1 [RILMENIDINE]	> 20	> 20
O=C(OOC(=O)c1ccccc1)c1ccccc1 [BENZOYL PEROXIDE]	> 20	> 20

SMILES	IC50 [µM]	IC50 (read-out: pIC50 (converted)) [µM]
CC(=O)OCC(=O)Nc1cc(C#N)cc(NC(=O)COC(C)=O)c1Cl [ACREOZAST]	> 20	> 20
COC(=O)N[C@H](C(=O)N[C@@H](Cc1ccccc1)[C@@H](O)CN(Cc1ccc(-c2ccccn2)cc1)NC(=O)[C@@H](NC(=O)OC)C(C)(C)C)C(C)(C)C [ATAZANAVIR]	> 20	> 20
Cc1c2ccncc2c(C)c2c1[nH]c1ccccc12 [ELLIPTECINE]	> 20	> 20
CCN(CC)CCSC(=O)C(c1ccccc1)c1ccccc1	> 20	> 20
COC(=O)c1nc2cc(Cl)c3cccnc3c2o1 [QUAZOLAST]	> 20	> 20
COc1ccc(C(=O)/C=C/c2ccccc2)cc1 [4'-METHOXYCHALCONE]	> 20	> 20
O=c1[nH]c(=O)n([C@@H]2O[C@H](CO)[C@@H](O)[C@@H]2O)cc1/C=C/Br [SORIVUDINE]	> 20	> 20
Nc1nc(=O)n([C@H]2CC[C@@H](CO)O2)cc1F	> 20	> 20
Nc1nncs1	> 20	> 20
CCN(CC)CC#CCOC(=O)[C@@](O)(c1ccccc1)C1CCCCC1 [ESOXYBUTYNIN]	> 20	> 20
O=C(CCCN1CCN(c2ccccn2)CC1)c1ccc(F)cc1 [AZAPERONE]	> 20	> 20
O=P(O)(O)C(O)(Cc1cccnc1)P(=O)(O)O [RISEDRONIC ACID]	> 20	> 20
O=C(CCCN1CCC(n2c(=O)[nH]c3ccccc32)CC1)c1ccc(F)cc1 [BENPERIDOL]	> 20	> 20
N#Cc1c(Cl)c(Cl)c(Cl)c(C#N)c1Cl [CHLOROTHALONIL]	> 20	> 20
Fc1ccc(C(OCCN2CCN(CCCc3ccccc3)CC2)c2ccc(F)cc2)cc1 [VANOXERINE]	> 20	> 20
CC(C(O)c1ccccc1)N(C)C (racemic)	> 20	> 20
CC(=O)NC(=O)c1ccccc1O [SALACETAMIDE]	> 20	> 20
CC(=O)OCC(=O)[C@@]1(O)CC[C@H]2C3CCC4=CC(=O)C=CC4(C)[C@H]3C(=O)CC21C (stereo partly specified)	> 20	> 20
CC(Cc1cccc(C(F)(F)F)c1)NCCOC(=O)c1ccccc1 (stereo unspecified) [BENFLUOREX]	> 20	> 20
CN(C)CCc1ccc(O)cc1 [HORDENINE]	> 20	> 20
COc1cc(N)c(Cl)cc1C(=O)NC1CCN2CCCC1C2 (stereo unspecified) [RENZAPRIDE]	> 20	> 20

SMILES	IC50 [µM]	IC50 (read-out: pIC50 (converted)) [µM]
CCCCC[C@H](O)/C=C/[C@H]1[C@H](O)CC(=O)[C@@H]1C/C=C\CCCC(=O)O [DINOPROSTONE]	> 20	> 20
COc1ccc2[nH]c([S+]([O-])Cc3ncc(C)c(OC)c3C)nc2c1 (stereo unspecified) [OMEPRAZOLE]	> 20	> 20
COc1ccc(-c2cc(=O)c3c(O)cc(O[C@@H]4O[C@H](CO[C@H]5O[C@H](C)[C@@H](O)[C@H](O)[C@@H]5O)[C@@H](O)[C@H](O)[C@H]4O)cc3o2)cc1O	> 20	> 20
CSc1ccc(C(=O)/C=C/c2cc(C)c(OC(C)(C)C(=O)O)c(C)c2)cc1 [ELAFIBRANOR]	> 20	> 20
C[N+](C)(C)CC(O)CC(=O)[O-] (stereo unspecified) [CARNITINE]	> 20	> 20
CNC(C)Cc1ccccc1OC (stereo unspecified) [METHOXYPHENAMINE]	> 20	> 20
Cc1c(C(=O)NN2CCCCC2)nn(-c2ccc(Cl)cc2Cl)c1-c1ccc(Cl)cc1 [RIMONABANT]	> 20	> 20
CC(=O)N(CC(C)C(=O)O)c1c(I)cc(I)c(N)c1I (stereo unspecified) [IOCETAMIC ACID]	> 20	> 20
c1ccc(C2(N3CCCCC3)CCCCC2)cc1 [PHENCYCLIDINE]	> 20	> 20
CCC1=C(C)CN(C(=O)NCCc2ccc(S(=O)(=O)NC(=O)N[C@H]3CC[C@H](C)CC3)cc2)C1=O [GLIMEPIRIDE]	> 20	> 20
C#CCN(C)CCCOc1ccc(Cl)cc1Cl [CLORGILINE]	> 20	> 20
NC(=O)c1ccc(N(C(N)=O)c2c(F)cccc2F)nc1-c1ccc(F)cc1F [VX-702]	> 20	> 20
Cn1c([N+](=O)[O-])cnc1COC(N)=O [RONIDAZOLE]	> 20	> 20
OC[C@@H](O)[C@@H](O)[C@H](O)[C@@H](O)CO [SORBITOL]	> 20	> 20
CC12CCC(=O)C=C1CCC1C3CC[C@](C)(O)C3(C)CC(O)[C@@]12F (stereo partly specified)	> 20	> 20
C/C(=N/NC(=N)N)c1cc(NC(=O)CCCCCCCCC(=O)Nc2cc(/C(C)=N\NC(=N)N)cc(/C(C)=N/NC(=N)N)c2)cc(/C(C)=N/NC(=N)N)c1	> 20	> 20
CCOC(=O)C(CC)(C(=O)NCCN(CC)CC)c1ccccc1 (stereo unspecified) [FENALAMIDE]	> 20	> 20
COc1ccc2c(c1)C(=O)N(CCc1ccc(S(=O)(=O)NC(=O)NC3CCCCC3)cc1)C(=O)C2(C)C [GLIQUIDONE]	> 20	> 20
O=C(O)c1c(O)c(-c2ccccc2)nc2ccccc12 [OXYCINCHOPHEN]	> 20	> 20
C[C@H]1NC(=O)CO[C@@H]1c1ccccc1 (relative stereo)	> 20	> 20
C[C@]12C[C@H]3S[C@H]3C[C@@H]1CC[C@@H]1[C@@H]2CC[C@]2(C)[C@@H](O)CC[C@@H]12 [EPITIOSTANOL]	> 20	> 20
